Measurements published in patent US5441984A, “Urea, thiourea and guanidine derivatives” (Eli Lilly and Company, priority 1994, dated 1995).

Tests used:
[1] = biological target: Protein Kinase C mediated procollagenase synthesis and secretion; experiment: In Vitro Inhibition of Procollagenase: PKC (PDBu) stimulated procollagenase synthesis and secretion in primary human dermal fibroblasts; assay type: cell-based; set-up: unit not given here; conditions: 2.0% FBS used to supplement DME; 10 nM PDBu, 72 hours
Description: Collagenase and stromelysin are matrix metalloendoproteases which are known to be synthesized and secreted by a number of cell types in response to Protein Kinase C (PKC) activation. Matrix metalloendoproteases are responsible for the degradation of extracellular matrix molecules in the basement membrane and play a role in cell invasiveness, tissue remodeling alterations in the microvasculature (increased capillary permeability and uncontrolled cell growth) and normal matrix turnover. Alterations in the microvasculature are hallmarks of diabetic complications such as kidney failure, blindness and neuropathy. Accordingly, the ability to modulate PKC driven pathways, such as the synthesis and secretion of the […] enzyme precursor, procollagenase, should provide pharmacological advantages in treating diabetic complications.
The compounds of the present invention were evaluated for their ability to antagonize Protein Kinase C mediated procollagenase synthesis and secretion according to the following methodology.
Stimulation of the enzyme Protein Kinase C with 4-β-phorbol-12,13-dibutyrate (PDBu) leads human fibroblasts and other cells of endodermal, mesodermal and ectodermal origin to synthesize and secrete the enzyme precursor procollagenase. […]
9. After washing, the plates were read. […]

[2] = system: rat
Procedure: Such results were calculated according to the following formula: [formula] PHGL =permeability of blood vessels (or blood flow) at high glucose levels (chamber on rat's back).
PC=permeability of blood vessels (or blood flow) at control state (prior to placing chamber on rat's back).
PTC=permeability of blood vessels (or blood flow) after test compound administered.

[3] = system: diabetic rats; experiment: In Vivo Vascular Permeability Study in diabetic rats; set-up: species or system rat; conditions: treated diabetic rats; 0.1% of diet, seven weeks; Mean ± SD; eight rats per group
Procedure: As confirmation of the in vivo results obtained above, a second in vivo experiment was conducted. In this in vivo test system the compound of Example 7 was fed to diabetic rats at 0.1% of the rat's diet for seven weeks. After seven weeks the rats were killed and vascular permeability in a number of different organ systems was compared. In Table III, Column 1 discloses the organ system examined, while Columns 2, 3 and 4 disclose the vascular permeability in μg of plasma/gram wet weight/minute for control (non-diabetic rats), untreated (diabetic rats/untreated) and treated (diabetic rats/treated), respectively (eight rats per each group).

Compound: N-[[3-(methylthiophenyl)-4-hydroxy-5-(1,1-dimethylethyl)phenyl]methyl]-N'-[4-(methylthio)phenyl]urea [Example 13]
- IC50 [1]: 8.6

Compound: CSc1ccccc1NC(=O)NCc1cc(C(C)(C)C)c(O)c(C(C)(C)C)c1 [Example 9, N-[[3,5-Bis(1,1-dimethylethyl)-4-hydroxyphenyl]methyl]-N'-[2-(methylthio)phenyl]urea]
- % Normalization of Diabetic State, Blood Flow [2]: 23.29%
- % Normalization of Diabetic State, Blood Vessel Permeability [2]: 8.45%

Compound: CSc1cccc(NC(=O)NCc2cc(C(C)(C)C)c(O)c(C(C)(C)C)c2)c1 [Example 11, N-[[3,5-Bis(1,1-dimethylethyl)-4-hydroxyphenyl]methyl]-N'-[3-(methylthio)phenyl]urea]
- % Normalization of Diabetic State, Blood Flow [2]: 21.50%
- % Normalization of Diabetic State, Blood Vessel Permeability [2]: -30.34%

Compound: CSc1ccc(NC(=O)NCc2cc(C(C)(C)C)c(O)c(C(C)(C)C)c2)cc1 [Example 6, N-[[3,5-Bis(1,1-dimethylethyl)-4-hydroxyphenyl]methyl]-N'-[4-(methylthio)phenyl]urea]
- % Normalization of Diabetic State, Blood Flow [2]: 35.48%
- % Normalization of Diabetic State, Blood Vessel Permeability [2]: 66.12%

Compound: COc1c(C(C)(C)C)cc(CNC(=O)Nc2ccc(SC)cc2)cc1C(C)(C)C [Example 7]
- vascular permeability, aorta [3]: 109 ± 65 μg plasma/g wet weight/min
- vascular permeability, brain [3]: 26 ± 11 μg plasma/g wet weight/min
- vascular permeability, heart [3]: 547 ± 181 μg plasma/g wet weight/min
- vascular permeability, kidney [3]: 1208 ± 293 μg plasma/g wet weight/min
- vascular permeability, muscle [3]: 59 ± 13 μg plasma/g wet weight/min
- vascular permeability, ocular anterior uvea [3]: 373 ± 105 μg plasma/g wet weight/min
- vascular permeability, ocular posterior uvea [3]: 323 ± 91 μg plasma/g wet weight/min
- vascular permeability, retina [3]: 62 ± 18 μg plasma/g wet weight/min
- vascular permeability, sciatic nerve [3]: 59 ± 18 μg plasma/g wet weight/min

Compound: CC(C)(C)c1cc(CNC(=S)Nc2ccccc2)cc(C(C)(C)C)c1O [Example 10, N-[[3,5-Bis(1,1-dimethylethyl)-4-hydroxyphenyl]methyl]-N'-phenylthiourea]
- % Normalization of Diabetic State, Blood Flow [2]: 17.56%
- % Normalization of Diabetic State, Blood Vessel Permeability [2]: 1.99%
